Laboratory results: ChEMBL document CHEMBL4396963, “An exploration of solvent-front region high affinity moiety leading to novel potent ALK & ROS1 dual inhibitors with mutant-combating effects” (Bioorg Med Chem, 2019)

Key:
HT-29 = experiment: cells; conditions: Homo sapiens, HT-29, 72 h
Description: Antiproliferative activity against human HT-29 cells assessed as reduction in cell viability incubated for 72 hrs by MTT assay

KARPAS-299 = experiment: Antiproliferative activity against human KARPAS299 cells assessed as reduction in cell viability incubated for 72 hrs by MTT assay; type: functional, cell-based; conditions: KARPAS-299, 72 h
A549 [1] = experiment: cells; conditions: Homo sapiens, A549, 72 h
A549 [2] = experiment: Antiproliferative activity against human A549 cells harbouring […] mutant assessed as reduction in cell viability incubated for 72 hrs by MTT assay; type: functional, cell-based; conditions: A549, 72 h
HCC78 = experiment: Antiproliferative activity against human HCC78 cells assessed as reduction in cell viability incubated for 72 hrs by MTT assay; type: functional, cell-based; conditions: HCC78, 72 h
NCI-H2228 = experiment: Antiproliferative activity against human NCI-H2228 cells assessed as reduction in cell viability incubated for 72 hrs by MTT assay; type: functional, cell-based; conditions: NCI-H2228, 72 h

SMILES: COc1cc(NC(=O)N[C@H]2CC[C@H](O)CC2)ccc1Nc1ncc(Cl)c(Nc2ccccc2NC(C)=O)n1
- IC50 (HT-29): > 10 µM
- IC50 (KARPAS-299): 340 nM
- IC50 (A549 [1]): 2.3 µM
- IC50 (A549 [2]): 1230 nM
- IC50 (HCC78): 95 nM
- IC50 (NCI-H2228): 550 nM

SMILES: COc1cc(NC(=O)C2CCN(C(=O)OC(C)(C)C)CC2)ccc1Nc1ncc(Cl)c(Nc2ccccc2NC(C)=O)n1
- IC50 (HT-29): > 10 µM
- IC50 (KARPAS-299): 510 nM
- IC50 (A549 [1]): 5.31 µM
- IC50 (A549 [2]): 1370 nM
- IC50 (HCC78): 610 nM
- IC50 (NCI-H2228): 1730 nM

SMILES: COc1cc(NC(=O)N2CCCCC2)ccc1Nc1ncc(Cl)c(Nc2ccccc2NC(C)=O)n1
- IC50 (HT-29): > 10 µM
- IC50 (KARPAS-299): 240 nM
- IC50 (A549 [1]): > 10 µM
- IC50 (A549 [2]): 970 nM
- IC50 (HCC78): 210 nM
- IC50 (NCI-H2228): 640 nM

SMILES: COc1cc(N2C(=O)CCC2=O)ccc1Nc1ncc(Cl)c(Nc2ccccc2NC(C)=O)n1
- IC50 (HT-29): > 10 µM
- IC50 (KARPAS-299): 210 nM
- IC50 (A549 [1]): > 10 µM
- IC50 (A549 [2]): 610 nM
- IC50 (HCC78): 390 nM
- IC50 (NCI-H2228): 630 nM

SMILES: COc1cc(NC2CCCCC2)ccc1Nc1ncc(Cl)c(Nc2ccccc2NC(C)=O)n1
- IC50 (HT-29): 4.73 µM
- IC50 (KARPAS-299): 870 nM
- IC50 (A549 [1]): > 10 µM
- IC50 (A549 [2]): 2170 nM
- IC50 (HCC78): 390 nM
- IC50 (NCI-H2228): 570 nM

SMILES: CCOC(=O)C1=C(Nc2ccc(Nc3ncc(Cl)c(Nc4ccccc4NC(C)=O)n3)c(OC)c2)CCC1
- IC50 (HT-29): > 10 µM
- IC50 (KARPAS-299): 5040 nM
- IC50 (A549 [1]): > 10 µM
- IC50 (A549 [2]): 3130 nM
- IC50 (HCC78): 920 nM
- IC50 (NCI-H2228): 2530 nM

SMILES: COc1cc(NC(=O)NCCCN2CCCC2)ccc1Nc1ncc(Cl)c(Nc2ccccc2NC(C)=O)n1
- IC50 (HT-29): > 10 µM
- IC50 (KARPAS-299): 290 nM
- IC50 (A549 [1]): 2.97 µM
- IC50 (A549 [2]): 1020 nM
- IC50 (HCC78): 110 nM
- IC50 (NCI-H2228): 720 nM

SMILES: COc1cc(NC(=O)N[C@H]2CC[C@H](C)CC2)ccc1Nc1ncc(Cl)c(Nc2ccccc2NC(C)=O)n1
- IC50 (HT-29): > 10 µM
- IC50 (KARPAS-299): 830 nM
- IC50 (A549 [1]): 4.12 µM
- IC50 (A549 [2]): 2410 nM
- IC50 (HCC78): 410 nM
- IC50 (NCI-H2228): 530 nM

SMILES: COc1cc(N2CCC2=O)ccc1Nc1ncc(Cl)c(Nc2ccccc2NC(C)=O)n1
- IC50 (HT-29): 5.57 µM
- IC50 (KARPAS-299): 660 nM
- IC50 (A549 [1]): 2.15 µM
- IC50 (A549 [2]): 650 nM
- IC50 (HCC78): 230 nM
- IC50 (NCI-H2228): 740 nM

SMILES: COc1cc(NC(=O)NC2CCCC2)ccc1Nc1ncc(Cl)c(Nc2ccccc2NC(C)=O)n1
- IC50 (HT-29): 6.57 µM
- IC50 (KARPAS-299): 840 nM
- IC50 (A549 [1]): > 10 µM
- IC50 (A549 [2]): 740 nM
- IC50 (HCC78): 610 nM
- IC50 (NCI-H2228): 470 nM

SMILES: COc1cc(NC2=CC(=O)CCC2)ccc1Nc1ncc(Cl)c(Nc2ccccc2NC(C)=O)n1
- IC50 (HT-29): > 10 µM
- IC50 (KARPAS-299): 1030 nM
- IC50 (A549 [1]): 5.19 µM
- IC50 (A549 [2]): 1110 nM
- IC50 (HCC78): 230 nM
- IC50 (NCI-H2228): 1640 nM

SMILES: COc1cc(NC(=O)N2CCC(C)CC2)ccc1Nc1ncc(Cl)c(Nc2ccccc2NC(C)=O)n1
- IC50 (HT-29): 3.25 µM
- IC50 (KARPAS-299): 170 nM
- IC50 (A549 [1]): > 10 µM
- IC50 (A549 [2]): 1270 nM
- IC50 (HCC78): 530 nM
- IC50 (NCI-H2228): 610 nM

SMILES: CCOC(=O)C1CCN(C(=O)Nc2ccc(Nc3ncc(Cl)c(Nc4ccccc4NC(C)=O)n3)c(OC)c2)CC1
- IC50 (HT-29): > 10 µM
- IC50 (KARPAS-299): 450 nM
- IC50 (A549 [1]): 1.72 µM
- IC50 (A549 [2]): 940 nM
- IC50 (HCC78): 870 nM
- IC50 (NCI-H2228): 1210 nM

SMILES: COc1cc(NC(=O)NCCCN2CCOCC2)ccc1Nc1ncc(Cl)c(Nc2ccccc2NC(C)=O)n1
- IC50 (HT-29): > 10 µM
- IC50 (KARPAS-299): 490 nM
- IC50 (A549 [1]): 3.1 µM
- IC50 (A549 [2]): 1100 nM
- IC50 (HCC78): 270 nM
- IC50 (NCI-H2228): 780 nM

SMILES: COc1cc(NC(=O)N2CCN(C)CC2)ccc1Nc1ncc(Cl)c(Nc2ccccc2NC(C)=O)n1
- IC50 (HT-29): > 10 µM
- IC50 (KARPAS-299): 49 nM
- IC50 (A549 [1]): 4.59 µM
- IC50 (A549 [2]): 440 nM
- IC50 (HCC78): 390 nM
- IC50 (NCI-H2228): 170 nM

SMILES: COc1cc(NC(=O)N2CCSCC2)ccc1Nc1ncc(Cl)c(Nc2ccccc2NC(C)=O)n1
- IC50 (HT-29): > 10 µM
- IC50 (KARPAS-299): 210 nM
- IC50 (A549 [1]): > 10 µM
- IC50 (A549 [2]): 2360 nM
- IC50 (HCC78): 170 nM
- IC50 (NCI-H2228): 570 nM

SMILES: COc1cc(NC(=O)NC2CCCCC2)ccc1Nc1ncc(Cl)c(Nc2ccccc2NC(C)=O)n1
- IC50 (HT-29): > 10 µM
- IC50 (KARPAS-299): 720 nM
- IC50 (A549 [1]): > 10 µM
- IC50 (A549 [2]): 1540 nM
- IC50 (HCC78): 510 nM
- IC50 (NCI-H2228): 460 nM
